Columns and labels:
[1] = tested on: HIV-1 NL4-3; test: Spreading infection of Jurkat cells infected with NL4-3, p24 capture ELISA; type: cell-based
Description: FIG. 16A-B. N16 inhibition of HIV-1 transmission in a spreading infection in Jurkat cells. A) Schematic diagram summarizing experimental protocol. Jurkat cells (triplicate samples of 5×10^5/well) were incubated for 2 hr with HIV-1 NL4-3 in treatment media containing 50 μM N16 or control vehicle (DMSO). At the end of this period, unbound virus was removed by centrifugation and the cells washed once, resuspended in fresh media and returned to the 37° C. incubator. For the next 15 days, tissue culture media was removed daily by centrifugation and saved for virus measurement by p24 capture ELISA and cells were replenished with fresh control or N16 treatment media. B) ELISA readings. In control media (containing DMSO), virus replication peaked at day 11; in the presence of N16, production peaked at 13 days. […] Cells were monitoring periodically for viability by Trypan Blue assay. To test their ability to produce virus after this sustained exposure, at day 15 the N16-treated cells were washed, fresh media without inhibitor was added and the cells were incubated 4 days longer (to day 19). The supernatant was collected, the cells were washed again and then incubated for another 4 days in media with inhibitor, adding fresh inhibitor daily. The final supernatant was collected on day 23. […] Thus, the cells maintained the ability to produce virus and the virus in the population at 15 days was essentially as susceptible to N16 as the initial virus population used to infect the Jurkat cells. Number of independent trials: n=2.
To investigate whether the ability to bind the UEV domain could affect Tsg101's function during HIV's budding process, viral particle production was tested (FIG. 15). […] Addition of N16 at 24 hr post-transfection had little effect on budding even at higher concentrations (FIG. 15A, bottom). […] After 15 days, virus production was reduced by 15-fold. Cell viability was maintained under these conditions of sustained drug exposure as indicated by trypan blue viability assay every 3rd day. […] Following the re-addition of N16 to the media, virus titer at this point was reduced 50-fold 4 days indicating maintenance of drug susceptibility.

[2] = tested on: cells; test: Cytotoxicity / cell metabolic activity on exposure to N16; type: cell-based
Description: We investigated the specificity of the inhibitory effect. F15 and N16 impaired Tsg101-co-localization with Gag on the plasma membrane (c.f, FIG. 19) and reduced release of the VLPs assembled by Gag (c.f, FIG. 15). […] Cell metabolic activity was not affected after exposure to N16 for 24 hr; it decreased by less than 10% after exposure to N16 for 48 hr (not shown). Tsg101 localization to the midbody of dividing cells requires its recruitment to that location by centrosomal protein of 55k (CEP55) which binds a site in the Tsg101 Pro-rich domain (aa 154-166) (Lee, H. H., et al. (2008)). Finding this function unaffected at a concentration inhibitory to virus budding is consistent with the lack of any indication that cell division was reduced in the presence of N16. The lack of effect on this function also supports the specificity of N16 targeting as limited to functions of the Tsg101 UEV domain. EGF ligand-binding to EGFR on the cell surface signals receptor internalization, ubiquitination, and sequential ESCRT 0-, I-, II- and III-mediated transport to degradative compartments, ultimately lowering the EGFR steady-state level (Tomas, A., et al. (2014)). This trafficking requires the engagement of the P(T/S)AP-binding pocket in the Tsg101 UEV domain with the PSAP motif in hepatocyte growth factor-regulated tyrosine kinase substrate (Hrs), a component of ESCRT-0 (Lu, Q., et al. (2003)). The down-regulation function remained unimpaired at concentrations well above 50 JAM.

Structure (SMILES): COc1ccc2[nH]c([S+]([O-])Cc3ncc(C)c(OC)c3C)nc2n1 (centres unmarked) [N16, tenatoprazole]
- reduction of virus production ([1]; 50 μM N16, Jurkat cells, peak values / after 15 days): 15 fold
- time of peak virus production ([1]; 50 μM N16, control peaked at day 11): 13 days
- resurgence of virus when N16 removed ([1]; media without inhibitor, 4 days (day 15 to 19)): 10 fold
- reduction of virus on re-addition of N16 ([1]; re-addition of N16, 4 days (to day 23)): 50 fold
- cell viability, trypan blue assay ([1]; sustained drug exposure, every 3rd day): maintained
- cytotoxicity ([2]; 50 μM, 24 hr exposure): did not induce detectable cytotoxicity
- cell metabolic activity ([2]; exposure to N16 for 24 hr): not affected
- decrease of cell metabolic activity ([2]; exposure to N16 for 48 hr, not shown): less than 10%

— patent US12059413B2, “Methods of inhibiting viruses using compositions targeting TSG101-ubiquitin interaction” (The Research Foundation for the State University of New York, priority 2016, dated 2024)
